Experimental data as given in ChEMBL document CHEMBL1201862, “PubChem BioAssay data set” (2004).
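Five compound concentrations were applied to cells in 96-well plates for 48 hours; endpoints were derived by simple linear interpolation of the resulting dose-response curve. Here, GI50 denotes the concentration required for 50% inhibition of growth.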 Active and inactive are the calls of the source. No stated cut-off is given here; in the data, active = GI50 up to about 1.1 µM and inactive = higher.

Columns and labels:
Assay in all cases: NCI-60 cell line screen, 48 h
786-0 = test system: 786-0
CCRF-CEM = test system: CCRF-CEM
COLO 205 = test system: COLO 205
EKVX = test system: EKVX
HCC 2998 = test system: HCC 2998
HOP-62 = test system: HOP-62
HT-29 = test system: HT-29
K562 = test system: K562
LOX IMVI = test system: LOX IMVI
NCI-H226 = test system: NCI-H226
NCI-H522 = test system: NCI-H522
RXF 393 = test system: RXF 393
SF-268 = test system: SF-268
SF-539 = test system: SF-539
SK-MEL-28 = test system: SK-MEL-28
SN12C = test system: SN12C
SW-620 = test system: SW-620
SR = test system: SR
NCI/ADR-RES = test system: NCI/ADR-RES

SMILES | GI50 (786-0) | GI50 (CCRF-CEM) | GI50 (COLO 205) | GI50 (EKVX) | GI50 (HCC 2998) | GI50 (HOP-62) | GI50 (HT-29) | GI50 (K562) | GI50 (LOX IMVI) | GI50 (NCI-H226) | GI50 (NCI-H522) | GI50 (RXF 393) | GI50 (SF-268) | GI50 (SF-539) | GI50 (SK-MEL-28) | GI50 (SN12C) | GI50 (SW-620) | GI50 (SR) | GI50 (NCI/ADR-RES)
CC1(C)CC23C(=O)N(c4ccccc4)C(Nc4ccccc4)=NC2=CC(C#N)=C(C#N)C3O1 (stereo not drawn) | > 100 µM (inactive) | 48.6 µM (inactive) | 39.9 µM (inactive) | > 100 µM (inactive) | 67.1 µM (inactive) | 82 µM (inactive) | 26.9 µM (inactive) | 72.4 µM (inactive) | 64.4 µM (inactive) | 26.4 µM (inactive) | 20.1 µM (inactive) | 15.2 µM (inactive) | > 100 µM (inactive) | 34.8 µM (inactive) | > 100 µM (inactive) | 34.8 µM (inactive) | 37.7 µM (inactive) |  | 
COc1ccccc1-n1c(NN)nc2ccc(Br)cc2c1=O | 36.9 µM (inactive) | 23.7 µM (inactive) | 45.9 µM (inactive) | 27.9 µM (inactive) | 41.7 µM (inactive) | 28.8 µM (inactive) | 38.2 µM (inactive) | 35.6 µM (inactive) | 27.9 µM (inactive) | 31 µM (inactive) | 16.9 µM (inactive) | 30.4 µM (inactive) | 32.4 µM (inactive) | 27.9 µM (inactive) | 40.3 µM (inactive) | 57.9 µM (inactive) | 53 µM (inactive) | 24.9 µM (inactive) | 
N#CC1=C(Cl)NC(Cl)=C(C#N)C1c1c(Cl)cccc1Cl | 25.1 µM (inactive) | 24.4 µM (inactive) | 17.5 µM (inactive) | 49.8 µM (inactive) | 24.1 µM (inactive) | 48.2 µM (inactive) | 31.4 µM (inactive) | 19 µM (inactive) | 17.3 µM (inactive) | > 100 µM (inactive) | 17.2 µM (inactive) | 22.6 µM (inactive) | 30.4 µM (inactive) | 46 µM (inactive) | 35.2 µM (inactive) | 24.7 µM (inactive) | 14 µM (inactive) | 40.7 µM (inactive) | 
CC1=C(O)C(=O)C2C(=O)C1C(C)C2c1ccccc1 (stereo not drawn) | > 100 µM (inactive) | > 100 µM (inactive) | > 100 µM (inactive) | > 100 µM (inactive) | > 100 µM (inactive) | > 100 µM (inactive) | > 100 µM (inactive) | > 100 µM (inactive) | > 100 µM (inactive) | > 100 µM (inactive) | > 100 µM (inactive) | > 100 µM (inactive) | > 100 µM (inactive) | > 100 µM (inactive) | > 100 µM (inactive) |  | > 100 µM (inactive) | > 100 µM (inactive) | 
O=C(O)C1CCc2nnc(-c3ccccc3)n21 (stereo not drawn) | > 100 µM (inactive) | > 100 µM (inactive) | > 100 µM (inactive) | > 100 µM (inactive) | > 100 µM (inactive) | > 100 µM (inactive) |  | > 100 µM (inactive) |  | > 100 µM (inactive) | > 100 µM (inactive) | > 100 µM (inactive) | > 100 µM (inactive) | > 100 µM (inactive) | > 100 µM (inactive) | > 100 µM (inactive) | > 100 µM (inactive) | > 100 µM (inactive) | 
CCCCOC(=O)C1C2CCC(O2)C1C(=O)OCCCC (stereo not drawn) | > 44.8 µM (inactive) | > 100 µM (inactive) | > 42.5 µM (inactive) | > 100 µM (inactive) | > 62.7 µM (inactive) | > 100 µM (inactive) | > 45.7 µM (inactive) | > 100 µM (inactive) | > 44.8 µM (inactive) | > 100 µM (inactive) | > 100 µM (inactive) | > 61.9 µM (inactive) | > 55.8 µM (inactive) | > 76.6 µM (inactive) | > 96.8 µM (inactive) | > 73.3 µM (inactive) |  |  | 
CS(=O)(=O)CC1=Nc2nnc(CCCCCCCc3nnc4n3C(=O)C(CS(C)(=O)=O)=N4)n2C1=O | > 100 µM (inactive) | > 100 µM (inactive) | > 100 µM (inactive) | > 100 µM (inactive) | > 100 µM (inactive) | > 100 µM (inactive) | > 100 µM (inactive) | > 100 µM (inactive) | > 100 µM (inactive) | > 100 µM (inactive) | > 100 µM (inactive) | > 100 µM (inactive) | > 100 µM (inactive) | > 100 µM (inactive) | > 100 µM (inactive) | > 100 µM (inactive) | > 100 µM (inactive) | > 100 µM (inactive) | 
CCc1cccc(CC)c1NC(=O)C1=C(C)NC(C)=C(C(=O)Nc2c(CC)cccc2CC)C1c1ccc([N+](=O)[O-])cc1 | 13.9 µM (inactive) | 15.5 µM (inactive) | 18 µM (inactive) | 23.5 µM (inactive) | 36.2 µM (inactive) | 57.5 µM (inactive) | 17.1 µM (inactive) | 19.1 µM (inactive) | 30.9 µM (inactive) | 26.1 µM (inactive) | 13.3 µM (inactive) | 17.1 µM (inactive) | 33.7 µM (inactive) | 16.2 µM (inactive) | 17.4 µM (inactive) | 46.5 µM (inactive) | 17.7 µM (inactive) |  | 
Cc1ccccc1NC(=O)C(=O)CC(=O)c1c(C)[n+]([O-])c2ccccc2[n+]1[O-] | > 100 µM (inactive) |  | > 100 µM (inactive) | > 100 µM (inactive) | > 100 µM (inactive) | > 100 µM (inactive) | > 100 µM (inactive) | > 100 µM (inactive) |  | > 100 µM (inactive) |  | > 100 µM (inactive) | > 100 µM (inactive) | > 100 µM (inactive) | > 100 µM (inactive) | > 100 µM (inactive) | > 100 µM (inactive) | 0.0278 µM (active) | 
Nc1nc(NNc2cccc(F)c2)cc(=O)[nH]1 | 18.8 µM (inactive) | 43.5 µM (inactive) | 23.3 µM (inactive) | > 100 µM (inactive) | 35.5 µM (inactive) | 25 µM (inactive) | 22.5 µM (inactive) | 36.1 µM (inactive) | 21.1 µM (inactive) | > 100 µM (inactive) |  |  |  | > 100 µM (inactive) | > 100 µM (inactive) | 65.8 µM (inactive) | 31.2 µM (inactive) | 27 µM (inactive) | 44.9 µM (inactive)
O=S(=O)(Sc1ccc(Cl)cc1)c1ccc(Cl)cc1 | 16 µM (inactive) | 4.23 µM (inactive) | 17.7 µM (inactive) | 15.6 µM (inactive) | 17.6 µM (inactive) | 15.3 µM (inactive) | 18.2 µM (inactive) | 19.9 µM (inactive) | 11.6 µM (inactive) | 16.7 µM (inactive) | 17.1 µM (inactive) | 15.7 µM (inactive) | 7.16 µM (inactive) | 14.6 µM (inactive) | 16.5 µM (inactive) | 12.4 µM (inactive) | 17.6 µM (inactive) | 10.5 µM (inactive) | 
O=C1Nc2ccc([N+](=O)[O-])cc2/C1=N/Nc1ccc([N+](=O)[O-])cc1 | 4.73 µM (inactive) | 72.1 µM (inactive) | 34.7 µM (inactive) | 35.3 µM (inactive) |  | 18.3 µM (inactive) | 21.4 µM (inactive) | 26.9 µM (inactive) | 27.5 µM (inactive) | 2.72 µM (inactive) | 17.2 µM (inactive) | 13.7 µM (inactive) | 11.3 µM (inactive) | 16.1 µM (inactive) | 19.5 µM (inactive) |  | 12.5 µM (inactive) | 43.4 µM (inactive) | 
CC(=O)Nc1ccc(/C=N\N2C(=O)c3ccccc3C2=O)cc1 | > 100 µM (inactive) | > 100 µM (inactive) |  | > 100 µM (inactive) | > 100 µM (inactive) | > 100 µM (inactive) | > 100 µM (inactive) | > 100 µM (inactive) | > 100 µM (inactive) | > 100 µM (inactive) |  | > 100 µM (inactive) | > 100 µM (inactive) | > 100 µM (inactive) | > 100 µM (inactive) | > 100 µM (inactive) | > 100 µM (inactive) | > 100 µM (inactive) | 
Cc1c(NC(=S)NC(=O)c2ccc([N+](=O)[O-])cc2)c(=O)n(-c2ccccc2)n1C | > 100 µM (inactive) | > 100 µM (inactive) | > 100 µM (inactive) | > 100 µM (inactive) | > 100 µM (inactive) | > 100 µM (inactive) | > 100 µM (inactive) | > 100 µM (inactive) | > 100 µM (inactive) | > 100 µM (inactive) | > 100 µM (inactive) | > 100 µM (inactive) | > 100 µM (inactive) | > 100 µM (inactive) | > 100 µM (inactive) | > 100 µM (inactive) | > 100 µM (inactive) | > 100 µM (inactive) | 
COC(=O)c1[nH]c(=S)[nH]c(=O)c1-c1ccc(Cl)cc1 | > 50 µM (inactive) | > 50 µM (inactive) | > 50 µM (inactive) | > 50 µM (inactive) | > 50 µM (inactive) | > 50 µM (inactive) | > 50 µM (inactive) | > 50 µM (inactive) | > 50 µM (inactive) | > 50 µM (inactive) | > 50 µM (inactive) | > 50 µM (inactive) | > 50 µM (inactive) | > 50 µM (inactive) | > 50 µM (inactive) | > 50 µM (inactive) | > 50 µM (inactive) | > 50 µM (inactive) | 
O=C1c2ccccc2C(=O)N1CCN(CCN1C(=O)c2ccccc2C1=O)Cc1ccccc1 | > 100 µM (inactive) | > 100 µM (inactive) | > 100 µM (inactive) | > 100 µM (inactive) |  | > 100 µM (inactive) |  | > 100 µM (inactive) | > 100 µM (inactive) |  | > 100 µM (inactive) | > 100 µM (inactive) | > 100 µM (inactive) |  | > 100 µM (inactive) | > 100 µM (inactive) | > 100 µM (inactive) | > 100 µM (inactive) | 
